PubChem BioAssay (NCI)
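Method: 48-hour compound exposure of cells in 96-well plates, five concentrations, linear interpolation of endpoints. Definition used: TGI = concentration required for complete inhibition of growth.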

What was measured:
Assay in all cases: NCI-60 cell line screen, 48 h
[1] = test system: DU-145 prostate
[2] = test system: MOLT-4 leukemia
[3] = test system: HL-60(TB) leukemia
[4] = test system: HCC-2998 colon
[5] = test system: HS 578T breast
[6] = test system: CAKI-1 renal
[7] = test system: SNB-19 CNS
[8] = test system: MDA-N
[9] = test system: SNB-78 CNS
[10] = test system: KM20L2 colon
[11] = test system: DLD-1 colon
[12] = test system: RXF-631 renal
[13] = test system: M19-MEL melanoma
[14] = test system: DMS 273 small cell lung
[15] = test system: DMS 114 small cell lung
[16] = test system: LXFL 529 NSCLC
[17] = test system: HOP-18 NSCLC
[18] = test system: XF 498 CNS

Row | SMILES | TGI [1] [µM] | TGI [2] [µM] | TGI [3] [µM] | TGI [4] [µM] | TGI [5] [µM] | TGI [6] [µM] | TGI [7] [µM] | TGI [8] [µM] | TGI [9] [µM] | TGI [10] [µM] | TGI [11] [µM] | TGI [12] [µM] | TGI [13] [µM] | TGI [14] [µM] | TGI [15] [µM] | TGI [16] [µM] | TGI [17] [µM] | TGI [18] [µM]
1 | C[n+]1c(-c2ccc(/C=N\Nc3ccnc(N/N=C/c4ccc(-c5cn6ccsc6[n+]5C)cc4)n3)cc2)cn2ccsc21 | 78 | > 100 | 57.4 | 77.2 | > 100 | 80.8 | > 100 | 26.7 |  |  |  |  |  |  |  |  |  | 
2 | COc1ccc(/C(=N/Nc2nc3ccccc3n2Cc2ccccc2)C(=O)O)cc1 | > 100 | 79.6 | 11.5 | 48.3 | > 100 | 45.8 | > 100 | > 100 |  |  |  |  |  |  |  |  |  | 
3 | COC1=CC(=O)C2=C(C1=O)[C@H]1CC[C@]3(C)C(=O)CC[C@H]3[C@@H]1CC2 | 57.1 | > 100 | 22.4 | > 100 | 70.5 | 77 | > 100 | 65.1 |  |  |  |  |  |  |  |  |  | 
4 | COc1cc2c(cc1OC)C1CN3CCCC3C(O)C1c1cc(OC)c(OC)cc1-2 (stereo unspecified) | > 100 | > 100 | > 100 | > 100 | > 100 | > 100 | > 100 | > 100 |  |  |  |  |  |  |  |  |  | 
5 | COc1ccc(NC(=O)CSc2nc(C)nc3c2sc(=S)n3-c2ccccc2)cc1 | > 10 | > 10 | > 10 | > 10 | > 10 | > 10 | > 10 | > 10 |  |  |  |  |  |  |  |  |  | 
6 | CC1CCC2C(C)C(OC(=O)CCC(=O)O)OC3OC4(C)CCC1C32OO4 (stereo unspecified) | 63.4 | 15 | 4.65 | 54.3 | > 100 | > 100 | > 100 | 38.7 |  |  |  |  |  |  |  |  |  | 
7 | O=C(O)CCC1C(=O)C2CCN1CC2 (stereo unspecified) | > 100 | > 100 | > 100 | > 100 | > 100 | > 100 | > 100 | > 100 |  |  |  |  |  |  |  |  |  | 
8 | CN1CCOC1(C)c1ccccc1 (stereo unspecified) | > 100 | > 100 | > 100 | > 100 | > 100 | > 100 | > 100 | > 100 |  |  |  |  |  |  |  |  |  | 
9 | CC(=O)c1ccc(NC(=O)C(=O)CC(=O)c2sc(-n3nc(-c4ccccc4)cc3-c3ccccc3)nc2C)cc1 |  | > 100 | > 100 | > 100 |  | > 100 | > 100 |  | > 100 | > 100 | > 100 | > 100 | > 100 | > 100 | > 100 | > 100 |  | 
10 | O=[N+]([O-])c1ccccc1S(=O)(=O)c1cccc2c1NCCC2 | > 100 | > 100 | > 100 | > 100 | > 100 | > 100 | > 100 | > 100 |  |  |  |  |  |  |  |  |  | 
11 | O=C(NCCc1ccccn1)c1ccc2cc(C(=O)N3CC(CCl)c4ccc([N+](=O)[O-])cc43)[nH]c2c1 (stereo unspecified) | > 100 | > 100 | > 100 | > 100 | > 100 | > 52.7 | 87.5 | > 100 |  |  |  |  |  |  |  |  |  | 
12 | CC1=CP(=O)(OC(C)C)C=C(C)C1=C(Cl)Cl (stereo unspecified) |  | > 100 | > 100 | > 100 |  |  | > 100 |  |  | > 100 | > 100 | > 100 | > 100 | > 100 | > 100 | > 100 | > 100 | > 100
13 | Cc1c(N)c(C#N)c2n(C)c3ncccc3n2c1=O |  | > 100 | > 100 | > 100 |  | > 100 | > 100 |  | > 100 | > 100 | > 100 |  | > 100 | > 100 |  | > 100 | > 100 | > 100
14 | C#CCC(O)c1ccc(OC)c(OCc2ccccc2)c1 (stereo unspecified) | > 100 | 56.6 | > 100 | > 100 | > 100 | > 100 | > 100 | > 100 |  |  |  |  |  |  |  |  |  | 
15 | CN1CC=C(C#CC(C)(C)O)CC1 | > 37.5 | > 37.5 | > 37.5 | > 37.5 | > 37.5 | > 37.5 | > 37.5 | > 37.5 |  |  |  |  |  |  |  |  |  | 
16 | Cc1cc(N(C)c2ccccc2)nc(N(C)c2ccccc2)n1 | > 100 | 99.9 | 59.6 | 79.6 | > 100 | > 100 | > 100 | > 100 |  |  |  |  |  |  |  |  |  | 
17 | O=c1c2ccccc2nc(-c2ccccc2)n1/N=C/c1ccccc1[N+](=O)[O-] | > 100 | > 100 | > 100 | > 100 | 15.9 | > 100 | 56.7 | > 100 |  |  |  |  |  |  |  |  |  | 
